Measured values reported in PubChem BioAssay (NCI).
Several values for one entry are separate records, joined by “and”; a condition that tells them apart may be missing. Equal entries are not always repeated.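 Cells were grown in 96-well plates and exposed to each compound for 48 hours at five concentrations; endpoints were interpolated linearly between bracketing concentrations, or set to the highest concentration if not reached. Abbreviation: GI50, concentration required for 50% inhibition of growth. TGI denotes the concentration required for complete inhibition of growth.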

Columns and labels:
Assay in all cases: DTP human tumour cell line panel, 48 h
[1] = tested on: EKVX NSCLC
[2] = tested on: HOP-92 NSCLC
[3] = tested on: KM12 colon
[4] = tested on: OVCAR-3 ovarian
[5] = tested on: OVCAR-4 ovarian
[6] = tested on: SF-539 CNS
[7] = tested on: SK-MEL-5 melanoma
[8] = tested on: DU-145 prostate
[9] = tested on: PC-3 prostate
[10] = tested on: BT-549 breast

| Compound | TGI [1] | TGI [2] | TGI [3] | TGI [4] | TGI [5] | TGI [6] | TGI [7] | GI50 [1] | GI50 [2] | GI50 [3] | GI50 [4] | GI50 [5] | GI50 [6] | GI50 [7] | TGI [8] | TGI [9] | GI50 [10] | TGI [10] | GI50 [8] | GI50 [9] |
| --- | --- | --- | --- | --- | --- | --- | --- | --- | --- | --- | --- | --- | --- | --- | --- | --- | --- | --- | --- | --- |
| CCOC(OC1=C(C#N)CCC1)C(CC)[Se]c1ccccc1 (stereo not drawn) | 89 µM | 54 µM | > 100 µM | 58.5 µM | 33.1 µM | 37.6 µM | 31.6 µM | – | – | – | – | – | – | – | – | – | – | – | – | – |
| CC(C)(C)C([O-])=C1C(=O)c2ccccc2C1=O.CC(C)(C)C([O-])=C1C(=O)c2ccccc2C1=O.CC[O-].CC[O-].[Ti+4] | 63.9 µM | > 100 µM | > 100 µM | 91.4 µM | > 100 µM | > 100 µM | 95.6 µM | 21.7 µM | 26.9 µM | 37.6 µM | 27.9 µM | 58.7 µM | 50.8 µM | 42.2 µM | – | – | – | – | – | – |
| CC(O)C(NC(=O)C(CS)NC(=O)C(CO)NC(=O)C(CCCCN)NC(=O)C(Cc1c[nH]c2ccccc12)NC(=O)C(Cc1ccc(O)cc1)NC(=O)C(CS)NC(=O)C(N)Cc1ccccc1)C(N)=O (stereo not drawn) | > 25 µM and 83.9 µM | – | > 25 µM and 58 µM | > 25 µM and 50 µM | > 25 µM and 94.8 µM | > 25 µM and 68.9 µM | > 25 µM | 36.1 µM | – | – | 21.3 µM | 26.6 µM | – | – | > 25 µM | > 25 µM | – | – | – | – |
| CCOC(=O)/C=C/c1ccc(C(=O)OCC)[nH]1 | > 100 µM | – | 92.6 µM | 7.64 µM | > 100 µM | 42.5 µM | 8.01 µM | 9.89 µM | – | 0.601 µM | 2.38 µM | 20.3 µM | 5.91 µM | 2.34 µM | 19.6 µM | > 100 µM | 6.76 µM | > 100 µM | 3.41 µM | 4.7 µM |
| CCc1cccc(C)c1NC(=O)CC1Sc2ccccc2NC1=O (stereo not drawn) | > 100 µM | 99.7 µM | > 100 µM | > 100 µM | > 100 µM | > 100 µM | > 100 µM | – | – | – | – | – | – | – | – | – | – | – | – | – |
| Cc1c2ncccc2c(C)c2c1[nH]c1ccccc12 | 30.7 µM | 25.3 µM | 29 µM | 28.3 µM | 43.4 µM | 26 µM | – | – | – | – | – | – | – | – | – | – | – | – | – | – |
| CC(=O)O/C(C)=C\C(=O)O/N=C(\N)c1ccc(C)cc1 | > 100 µM | > 100 µM | > 100 µM | > 100 µM | 64.5 µM | 57.4 µM | 58.5 µM | – | – | – | – | – | – | – | – | – | – | – | – | – |
| C=CCN(N=O)C(=O)N(CCC)CCCC(NC(C)=O)C(=O)NCc1ccccc1 (stereo not drawn) | > 100 µM | – | > 100 µM | > 100 µM | > 100 µM | > 100 µM | > 100 µM | – | – | – | – | – | – | – | – | – | – | – | – | – |
| Cc1ccc(C)c(NC(=O)/C(=N\NC(N)=S)C(C#N)c2ccccc2)c1 (stereo not drawn) | > 100 µM | > 100 µM | > 100 µM | > 100 µM | > 100 µM | > 100 µM | > 100 µM | – | – | – | – | – | – | – | – | – | – | – | – | – |
| COc1cc2ccc3c4cc(OC)c(OCc5ccccc5)cc4cnc3c2cc1OC | > 100 µM | – | > 100 µM | > 100 µM | > 100 µM | – | > 100 µM | – | – | – | – | – | – | – | – | – | – | – | – | – |
| CCCCCCCCCCCCC(SCCNC(=O)CCNC(=O)C(O)C(C)(C)COP(=O)(O)OP(=O)(O)OCC1OC(n2cnc3c(N)ncnc32)C(O)C1OP(=O)(O)O)C(=O)NCC(N)=O (stereo not drawn) | > 100 µM | > 100 µM | > 100 µM | > 100 µM | > 100 µM | > 100 µM | > 100 µM | – | – | – | – | – | – | – | – | – | – | – | – | – |
| Cc1ccc(S(=O)(=O)ON/N=C2/C3OC3[C@@H]3CCCC[C@H]23)cc1 (stereo partly drawn) | > 100 µM | > 100 µM | > 100 µM | > 100 µM | > 100 µM | > 100 µM | – | – | – | – | – | – | – | – | – | – | – | – | – | – |
| Cc1c(C(=O)CC(=O)C(=O)NC2C3CC4CC(C3)CC2C4)[n+](=O)c2ccccc2n1[O-] (stereo not drawn) | > 100 µM | > 100 µM | > 100 µM | 85.1 µM | > 100 µM | > 100 µM | > 100 µM | – | – | – | – | – | – | – | – | – | – | – | – | – |
| O=C1/C(=C\c2cccs2)Oc2ccccc21 | > 100 µM | 89 µM | > 100 µM | > 100 µM | > 100 µM | – | > 100 µM | – | – | – | – | – | – | – | > 100 µM | > 100 µM | – | > 100 µM | – | – |
| c1ccc(COc2ccc3[nH]c4c(ncc5[nH]c6ccccc6c54)c3c2)cc1 | 32.4 µM | 29.9 µM | 29.5 µM | 30.3 µM | – | 29.4 µM | 30 µM | – | – | – | – | – | – | – | – | – | – | – | – | – |
| COc1ccc([N+](=O)[O-])c2c(NCC(O)CO)ccnc12 (stereo not drawn) | 82.3 µM | – | > 100 µM | 70 µM | 45.7 µM | 90.1 µM | 60.8 µM | – | – | – | – | – | – | – | > 100 µM | > 100 µM | – | 56 µM | – | – |
| O=C(N=Nc1c(O)[nH]c2ccccc12)c1ccccc1O | > 100 µM | – | > 100 µM | > 100 µM | > 100 µM | > 100 µM | – | – | – | – | – | – | – | – | – | – | – | – | – | – |
| COc1ccc2c(C3(O)CCNCC3)c[nH]c2c1 | > 100 µM | > 100 µM | > 100 µM | > 100 µM | > 100 µM | > 100 µM | > 100 µM | – | – | – | – | – | – | – | – | – | – | – | – | – |
| O=c1oc2c3ccc4ccccc4c3n(Cc3nc4ccccc4[nH]3)c2c2ccccc12 | > 31.6 µM | > 100 µM | > 100 µM | > 72.8 µM | > 100 µM | > 26.2 µM | – | – | – | – | – | – | – | – | – | – | – | – | – | – |
| Cc1ccc(S(=O)(=O)NCCN2c3nc4ccccc4cc3Sc3cc4ccccc4nc32)cc1 | > 100 µM | 13.3 µM | > 100 µM | > 100 µM | – | 20.5 µM | > 100 µM | > 77 µM | 2.19 µM | > 100 µM | > 26.8 µM | – | 4.79 µM | 5.59 µM | > 100 µM | – | 17.4 µM | > 100 µM | > 100 µM | – |
| c1c[nH]c(Cc2ncc(Cc3cnc[nH]3)[nH]2)n1 | > 100 µM | > 100 µM | > 100 µM | > 100 µM | > 100 µM | > 100 µM | 59.1 µM | – | – | – | – | – | – | – | – | – | – | – | – | – |
| CC(C)(C)N=CN1CCC(C(c2ccccc2)c2ccccc2)CC1 | > 100 µM | > 100 µM | > 100 µM | > 100 µM | > 100 µM | > 100 µM | > 100 µM | – | – | – | – | – | – | – | – | – | – | – | – | – |
| O=C(Nc1ccc(Br)cc1)c1cc(Br)cc(Br)c1O | 7.38 µM | – | 8.09 µM | 8 µM | > 100 µM | 12.4 µM | 4.57 µM | 1.76 µM | – | 2.59 µM | 2.95 µM | 3.33 µM | 2.89 µM | 2.15 µM | 19.9 µM | 8.82 µM | 3.08 µM | 14.4 µM | 3.56 µM | 2.65 µM |
